Assay results from paper PMC3693456 (Bioorganic & medicinal chemistry letters, 2008).

Target: CB1 receptor (Rattus norvegicus, UniProt P20272)
Format: binding
Settings: rat brain membranes, PMSF; for CB1 receptor affinity (in words): qualitative statement

Chain of CB1 receptor (P20272 whole entry): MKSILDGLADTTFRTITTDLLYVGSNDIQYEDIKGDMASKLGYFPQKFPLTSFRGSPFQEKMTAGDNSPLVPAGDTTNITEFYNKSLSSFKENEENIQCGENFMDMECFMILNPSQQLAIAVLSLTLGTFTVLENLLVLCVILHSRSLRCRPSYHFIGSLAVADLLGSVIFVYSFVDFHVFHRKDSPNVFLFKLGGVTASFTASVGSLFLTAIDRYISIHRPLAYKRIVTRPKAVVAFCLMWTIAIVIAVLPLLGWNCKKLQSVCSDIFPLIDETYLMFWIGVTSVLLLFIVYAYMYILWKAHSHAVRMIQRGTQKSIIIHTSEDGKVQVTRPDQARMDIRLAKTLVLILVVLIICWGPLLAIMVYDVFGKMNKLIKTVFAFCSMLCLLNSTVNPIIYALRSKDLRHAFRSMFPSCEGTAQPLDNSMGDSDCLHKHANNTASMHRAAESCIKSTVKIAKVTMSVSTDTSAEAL

Row | Structure (SMILES) | fold lower CB1 affinity compared to 7d (relative to 7d) | CB1 receptor affinity (in words)
1 | C[C@H](CO)NC(=O)CCC/C=C\C/C=C\C/C=C\C/C=C\CCCCCc1ccccc1 [7e] | over 5 fold | –
2 | C[C@H](CO)NC(=O)CCC/C=C\C/C=C\C/C=C\C/C=C\CCCCc1cccc2ccccc12 [7f] | – | loss of CB1 receptor affinity
3 | C[C@H](CO)NC(=O)CCC/C=C\C/C=C\C/C=C\C/C=C\CCCCc1ccc(Br)cc1 [7n] | – | most potent analog
4 | C[C@H](CO)NC(=O)CCC/C=C\C/C=C\C/C=C\C/C=C\CCCCc1ccco1 [7q] | – | substantially weaker affinity
